The results in this text go back to patent US20230234942A1, “COMPOUNDS FOR TREATING HUNTINGTON'S DISEASE” (PTC Therapeutics, Inc., priority 2020, published 2023).

For this assay, the system named is Endogenous Huntingtin Protein. Nature of the assay: Endogenous Huntingtin Protein Assay (ELISA-based MSD electrochemiluminescence). Format: cell-based. To be noted: Table 2; MSD plates coated with MW1 (expanded polyglutamine) or MAB2166 capture antibody; "inactive" = result above the detection limit of the assay. In a few lines:
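MSD electrochemiluminescence sandwich ELISA: capture with MW1 (expanded polyQ) or MAB2166 at 1 µg/mL, samples incubated overnight at 4 °C. Detection by rabbit mAb #56565 then SULFO-TAG anti-rabbit antibody, each 0.25 µg/mL for 1 h at room temperature, read in buffer T on SI 6000 imager.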
Take `Cn1nnc2nc(-c3ccc(-c4cnc(N5CCN[C@@H](C6CC6)C5)nn4)c(O)c3)ccc21` [Cpd 171, 2-{3-[(3S)-3-cyclopropylpiperazin-1-yl]-1,2,4-triazin-6-yl}-5-(1-methyl-1H-[1,2,3]triazolo[4,5-b]pyridin-5-yl)phenol]: the IC50 (usually the concentration that inhibits the measured activity by half) amounted to 14.1 nM. The same measure for `[2H]C([2H])([2H])Oc1cc(-c2ccc(-c3cnc(N4CCN[C@@H](C5CC5)C4)nn3)c(O)c2)ncn1` [Cpd 2, 2-{3-[(3S)-3-cyclopropylpiperazin-1-yl]-1,2,4-triazin-6-yl}-5-{6-[(^2H3)methyloxy]pyrimidin-4-yl}phenol]: 3.9 nM; for `Cc1nnn2cc(-c3ccc(-c4cnc(N5CCN[C@@H](C6CC6)C5)nn4)c(O)c3)ccc12` [Cpd 193, 2-{3-[(3S)-3-cyclopropylpiperazin-1-yl]-1,2,4-triazin-6-yl}-5-(3-methyl[1,2,3]triazolo[1,5-a]pyridin-6-yl)phenol]: 4.8 nM; for `Oc1cc(-c2cn[nH]c2)ccc1-c1cnc(N2CCN3CCCC3C2)nn1` (stereo not shown) [Cpd 284, 2-[3-(hexahydropyrrolo[1,2-a]pyrazin-2(1H)-yl)-1,2,4-triazin-6-yl]-5-(1H-pyrazol-4-yl)phenol]: 91.4 nM. With `Oc1cc(-c2cn[nH]c2)ccc1-c1cnc(N2CCNC3(CCC3)C2)nn1` [Cpd 50, 2-[3-(5,8-diazaspiro[3.5]nonan-8-yl)-1,2,4-triazin-6-yl]-5-(1H-pyrazol-4-yl)phenol], the concentration for half-maximal inhibition (IC50) came to 312 nM. As for `COc1cc(-c2ccc(-c3cnc(N4C[C@@H](C)N[C@@H](C)C4)nn3)c(O)c2)nn2nc(C)nc12` [Cpd 90, 2-{3-[(3R,5S)-3,5-dimethylpiperazin-1-yl]-1,2,4-triazin-6-yl}-5-(8-methoxy-2-methyl[1,2,4]triazolo[1,5-b]pyridazin-6-yl)phenol], the IC50 was determined as 6.8 nM. Consider `C[C@@H]1CN(c2ncc(-c3ccc(-c4ccc5nn(C)cc5c4)cc3O)nn2)C[C@H](C)N1` [Cpd 72, 2-{3-[(3R,5S)-3,5-dimethylpiperazin-1-yl]-1,2,4-triazin-6-yl]-5-(2-methyl-2H-indazol-5-yl)phenol], for which the IC50 was 4.1 nM.

As for `Cn1nc2cc(-c3ccc(-c4cnc(N5CCN[C@@H](C6(C)CC6)C5)nn4)c(O)c3)cnc2n1` [Cpd 241, 2-{3-[(3S)-3-(1-methylcyclopropyl)piperazin-1-yl]-1,2,4-triazin-6-yl}-5-(2-methyl-2H-[1,2,3]triazolo[4,5-b]pyridin-6-yl)phenol], it took 5.7 nM to reach half-maximal inhibition (IC50). The value for `Cc1cncc(-c2ccc(-c3cnc(N4CCN[C@@H](C(C)C)C4)nn3)c(O)c2)n1` [Cpd 143, 5-(6-methylpyrazin-2-yl)-2-{3-[(3S)-3-(propan-2-yl)piperazin-1-yl]-1,2,4-triazin-6-yl}phenol] was 634 nM. With `Cc1cn2cc(-c3ccc(-c4cnc(N5CCN(C)[C@H](C)C5)nn4)c(O)c3)cc(F)c2n1` [Cpd 107, 2-{3-[(3R)-3,4-dimethylpiperazin-1-yl]-1,2,4-triazin-6-yl}-5-(8-fluoro-2-methylimidazo[1,2-a]pyridin-6-yl)phenol], 16.8 nM corresponded to half-maximal inhibition (IC50). Regarding `Cc1nc2cc(-c3ccc(-c4cnc(N5CCN[C@@H](C(C)C)C5)nn4)c(O)c3)ccn2n1` [Cpd 147, 5-(2-methyl[1,2,4]triazolo[1,5-a]pyridin-7-yl)-2-{3-[(3S)-3-(propan-2-yl)piperazin-1-yl]-1,2,4-triazin-6-yl}phenol], the IC50 is 38.8 nM. In the case of `Cn1cc(-c2ccc(-c3cnc(N4CCN[C@@H](C5CC5)C4)nn3)c(O)c2)cn1` [Cpd 12, 2-{3-[(3S)-3-cyclopropylpiperazin-1-yl]-1,2,4-triazin-6-yl}-5-(1-methyl-1H-pyrazol-4-yl)phenol], the midpoint of inhibition, the IC50, lay at 10.9 nM. `Cc1cn2nc(-c3ccc(-c4cnc(N5C[C@@H](C)N[C@@H](C)C5)nn4)c(O)c3)cc(C)c2n1` [Cpd 69, 5-(2,8-dimethylimidazo[1,2-b]pyridazin-6-yl)-2-{3-[(3R,5S)-3,5-dimethylpiperazin-1-yl]-1,2,4-triazin-6-yl}phenol] registered an IC50 of 3.6 nM. `COc1cc(-c2ccc(-c3cnc(N4C[C@@H](C)N[C@@H](C(C)C)C4)nn3)c(O)c2)ccn1` [Cpd 257, 5-(2-methoxypyridin-4-yl)-2-{3-[(3R,5S)-3-methyl-5-(propan-2-yl)piperazin-1-yl]-1,2,4-triazin-6-yl}phenol] had an IC50 of 19.8 nM. `Cc1cn2cc(-c3ccc(-c4cnc(N5C[C@@H](C)N[C@@H](C)C5)nn4)c(O)c3)nc(C)c2n1` [Cpd 103, 5-(2,8-dimethylimidazo[1,2-a]pyrazin-6-yl)-2-{3-[(3R,5S)-3,5-dimethylpiperazin-1-yl]-1,2,4-triazin-6-yl}phenol] displayed a 50% inhibitory concentration (IC50) of 13.4 nM. Regarding `CC(C)[C@H]1CN(c2ncc(-c3ccc(-c4cnsn4)cc3O)nn2)CCN1` [Cpd 265, 2-{3-[(3S)-3-(propan-2-yl)piperazin-1-yl]-1,2,4-triazin-6-yl}-5-(1,2,5-thiadiazol-3-yl)phenol], 292 nM corresponded to half-maximal inhibition (IC50). `C[C@H]1CN(c2ncc(-c3ccc(-c4cn[nH]c4)cc3O)nn2)C[C@@H](C2CC2)N1` [Cpd 224, 2-{3-[(3R,5S)-3-cyclopropyl-5-methylpiperazin-1-yl]-1,2,4-triazin-6-yl]-5-(1H-pyrazol-4-yl)phenol] displayed a half-inhibitory concentration (IC50) of 232 nM. `Cn1cc2cc(-c3ccc(-c4cnc(N5CCN6CCC[C@H]6C5)nn4)c(O)c3)cc(F)c2n1` [Cpd 99, 5-(7-fluoro-2-methyl-2H-indazol-5-yl)-2-{3-[(8aS)-hexahydropyrrolo[1,2-a]pyrazin-2(1H)-yl]-1,2,4-triazin-6-yl]phenol] gave an IC50 of 10.5 nM. In the case of `Cc1cn2cc(-c3cnc(-c4cnc(N5CCN(C)CC5)nn4)c(O)c3)cc(F)c2n1` [Cpd 122, 5-(8-fluoro-2-methylimidazo[1,2-a]pyridin-6-yl)-2-[3-(4-methylpiperazin-1-yl)-1,2,4-triazin-6-yl]pyridin-3-ol], the IC50 amounted to 41.2 nM.

For `CCCC1CN(c2ncc(-c3ccc(-c4cn[nH]c4)cc3O)nn2)CCN1` (stereo not shown) [Cpd 31, 2-[3-(3-propylpiperazin-1-yl)-1,2,4-triazin-6-yl]-5-(1H-pyrazol-4-yl)phenol], the IC50 is 34.3 nM.

Compound `COC1(C2CN(c3ncc(-c4ccc(-c5cn[nH]c5)cc4O)nn3)CCN2)CC1` (stereo not shown) [Cpd 29, 2-{3-[3-(1-methoxycyclopropyl)piperazin-1-yl]-1,2,4-triazin-6-yl}-5-(1H-pyrazol-4-yl)phenol] returned an IC50 of 28.5 nM. Take `C[C@@H]1CN(c2ncc(-c3ccc(-c4cn[nH]c4)cc3O)nn2)C[C@H](C2CC2)N1` [Cpd 225, 2-{3-[(3S,5R)-3-cyclopropyl-5-methylpiperazin-1-yl]-1,2,4-triazin-6-yl}-5-(1H-pyrazol-4-yl)phenol]: the IC50 is 13.4 nM. On to `CN1CCN(c2ncc(-c3ccc(-c4cn[nH]c4)cc3O)nn2)CC1C1CC1` (stereo not shown) [Cpd 27, 2-[3-(3-cyclopropyl-4-methylpiperazin-1-yl)-1,2,4-triazin-6-yl]-5-(1H-pyrazol-4-yl)phenol], for which half-maximal inhibition (IC50) was put at 25.1 nM. In turn, `CC(C)[C@H]1CN(c2ncc(-c3ccc(-c4cnn(C)n4)cc3O)nn2)CCN1` [Cpd 262, 5-(2-methyl-2H-1,2,3-triazol-4-yl)-2-{3-[(3S)-3-(propan-2-yl)piperazin-1-yl]-1,2,4-triazin-6-yl}phenol] had an IC50 of 94.2 nM. Regarding `CC(C)[C@H]1CN(c2ncc(-c3ccc(-c4cnn5c4OCCC5)cc3O)nn2)CCN1` [Cpd 282, 5-(6,7-dihydro-5H-pyrazolo[5,1-b][1,3]oxazin-3-yl)-2-{3-[(3S)-3-(propan-2-yl)piperazin-1-yl]-1,2,4-triazin-6-yl}phenol], half-maximal inhibition (IC50) was put at 131 nM. For the compound `CC(C)[C@H]1CN(c2ncc(-c3ccc(-c4ccc5nsnc5c4)cc3O)nn2)CCN1` [Cpd 263, 5-(2,1,3-benzothiadiazol-5-yl)-2-{3-[(3S)-3-(propan-2-yl)piperazin-1-yl]-1,2,4-triazin-6-yl]phenol], the half-maximal inhibitory concentration (IC50) was found to be 214 nM. As for `CCC1CN(c2ncc(-c3ccc(-c4cc(F)c5nn(C)cc5c4)cc3O)nn2)CCN1` (stereo not shown) [Cpd 74, 2-[3-(3-ethylpiperazin-1-yl)-1,2,4-triazin-6-yl]-5-(7-fluoro-2-methyl-2H-indazol-5-yl)phenol], the IC50 came out at 4.3 nM.

`CC(C)[C@H]1CN(c2ncc(-c3ccc(-c4ccncc4)cc3O)nn2)CCN1` [Cpd 161, 2-{3-[(3S)-3-(propan-2-yl)piperazin-1-yl]-1,2,4-triazin-6-yl}-5-(pyridin-4-yl)phenol] showed an IC50 of 60.5 nM. `C[C@@H]1CN(c2ncc(-c3ccc(-c4cnc5nn(C)cc5c4)cc3O)nn2)C[C@H](C)N1` [Cpd 97, 2-{3-[(3R,5S)-3,5-dimethylpiperazin-1-yl]-1,2,4-triazin-6-yl}-5-(2-methyl-2H-pyrazolo[3,4-b]pyridin-5-yl)phenol] returned an IC50 of 9.8 nM. `Oc1cc(-c2cn[nH]c2)ccc1-c1cnc(N2CCNC(C3(O)CC3)C2)nn1` (stereo not shown) [Cpd 6, 2-{3-[3-(1-hydroxycyclopropyl)piperazin-1-yl]-1,2,4-triazin-6-yl}-5-(1H-pyrazol-4-yl)phenol]: the IC50 amounted to 6.7 nM. With `[2H]C([2H])([2H])n1cc(-c2ccc(-c3cnc(N4CCNC(CC)C4)nn3)c(O)c2)cn1` (stereo not shown) [Cpd 39, 2-[3-(3-ethylpiperazin-1-yl)-1,2,4-triazin-6-yl]-5-[1-(^2H3)methyl-1H-pyrazol-4-yl]phenol], the IC50 stood at 63.7 nM. The same measure for `CC(C)[C@H]1CN(c2ncc(-c3ccc(-c4nc5cccnc5s4)cc3O)nn2)CCN1` [Cpd 191, 2-{3-[(3S)-3-(propan-2-yl)piperazin-1-yl]-1,2,4-triazin-6-yl}-5-([1,3]thiazolo[5,4-b]pyridin-2-yl)phenol]: 621 nM; for `CC(C)[C@H]1CN(c2ncc(-c3ccc(-c4ncccn4)cc3O)nn2)CCN1` [Cpd 151, 2-{3-[(3S)-3-(propan-2-yl)piperazin-1-yl]-1,2,4-triazin-6-yl}-5-(pyrimidin-2-yl)phenol]: 204 nM; for `CC(C)C1CN(c2ncc(-c3ccc(-c4c[nH]nc4F)cc3O)nn2)CCN1` (stereo not shown) [Cpd 15, 5-(3-fluoro-1H-pyrazol-4-yl)-2-{3-[3-(propan-2-yl)piperazin-1-yl]-1,2,4-triazin-6-yl]phenol]: 12.8 nM.
